Columns and labels:
[1] = tested on: HIF-2a 5′-UTR Iron-Responsive Element (IRE); experiment: Luciferase reporters with HIF-2a 5′-UTR / IRE in 786-O cells; type: cell-based, human; conditions: for dependence of effect on the IRE (wild-type or mutant 5′-UTR IRE reporter): 786-O luciferase reporter lines; for dependence of effect on HIF-2a 5′-UTR: HIF-2a promoter luciferase with or without 5′-UTR
HIF and VHL target genes = experiment: Gene expression profiling and gene set enrichment analysis (GSEA) of compound treated 786-O cells; type: cell-based, human; conditions: for regulation of HIF target genes: 786-O cells at experimentally determined IC50 concentrations; for NES, gene set PRC3, VHL null (markers of PRC3 cells compared to WT8 cells) / NES, gene set Schofield, HIF (validated HIF-regulated genes) / NES, gene set Staller, VHL WT (markers of VHL WT cells compared to VHL null cells) / NES, gene set Staller, VHL null (markers of VHL null cells compared to VHL WT cells) / NES, gene set WT8, VHL WT (markers of WT8 cells compared to PRC3 cells): 786-O cells, GSEA normalized enrichment score
Experimental: RNA from compound treated 786-O cells was isolated as described for qRT-PCR experiments. Labeled cRNA was prepared and hybridized to Affymetrix U133 Plus 2.0 microarrays according to the manufacturer's protocols. Scans were processed using Affymetrix MASS software and median scaled. Gene expression values less than a minimum threshold of 20 or a maximum threshold of 16000 were set to 20 and 16000, respectively. Genes with minimal variation across the dataset were discarded (maximum/minimum<3 or maximum−minimum<100). Class neighbors were identified with GenePattern software using the signal to noise metric (Golub et al., 1999). Hierarchical clustering was performed using dCHIP software. Gene set enrichment analysis was performed as described (Mootha et al., 2003) and significance was determined by permutation of the gene labels. Gene expression signatures were analyzed using the Connectivity Map webtool (build 01). Full details of the Connectivity Map dataset and analytics are provided elsewhere (Lamb et al., 2006). For PGJ2 expression analysis, raw gene-expression data have GEO series accession number GSE13818 and compound signatures from which non-HG-U133A probe sets were removed (see Table 6) were used to query the Connectivity Map (build 02).
Total RNA was extracted from stable 786-O derived VHL-reconstituted (WT8), HIF-2a knock down (pTR) and their respective vector only control (PRC3 and pTV) cells and labeled cRNA was hybridized to oligonucleotide arrays. […] Compound-treated parental 786-O cells were subjected to the same analysis. […] The gene set enrichment analysis (GSEA) algorithm was used to investigate whether the compounds affected the expression of genes identified as VHL and HIF targets in other cell types (Mootha et al., 2003).

HIF-2a mRNA translation = experiment: 35S-methionine pulse-label immunoprecipitation of HIF-2a (translation); type: cell-based, human; conditions: 786-O cells
Experimental: (§1) Cells were treated with medium only, DMSO, or compound as described for western blots. Following the second day of treatment, cells were washed twice in PBS and then placed into medium only, DMSO, or labeling medium (methionine minus DMEM supplemented with 1× glutamine and 5% dialyzed FBS) and pulse-labeled for 30 minutes at 37° C. with 0.5 mCi ^35S-Methionine (New England Nuclear) per p100 plate. Cells were washed twice in PBS and lysed with RIPA buffer supplemented with protease inhibitors. […] In the case of the pulse-chase experiment, two identically treated plates were placed into chasing medium (DMEM supplemented with 10% Fetal Clone I, 1× Glutamine and 3 mg/mL methionine), placed back into the 37° C. incubator and harvested after 1.5 and 3 hours. Immunoprecipitated samples were subjected to SDS-PAGE, enhanced in sodium salicylate, dried and exposed for 2-3 days before the film was quantified by densitometry.
The effect of HIF inhibitors on protein translation was determined by ^35S-methionine pulse labeling DMSO or compound treated cells. […] Pulse chase experiments confirm that this decrease is not attributable to any effect on the protein half-life (see FIG. 11).
To determine if PGJ2 decreases translation of the HIF2a message, the inventors evaluated the synthesis rate and stability of the newly synthesized HIF2a by an ^35S-methionine pulse chase experiment on PGJ2 or vehicle only DMSO treated 786-O cells. […] Loading control is 1/1000th of the cell lysate used in the respective immunoprecipitation directly loaded into an SDS-PAGE gel.

[2] = tested on: putative IRE in HIF-1a 5′-UTR; experiment: Luciferase reporter with putative HIF-1a IRE; type: cell-based, human; conditions: 786-O derived reporter lines, normoxia or 1% oxygen
Experimental: The consensus sequence of the loop and the mandatory 5′ cytosine bulge are highlighted with light blue circles. […] Duplicate plates of 786-O derived lines expressing the putative wild-type or mutant HIF-1a IRE were cultured in the presence of compound as described for FIG. 1, with the exception that one set was placed at 1% oxygen for 24 hours following the first day's medium-change. Cells were treated with M, medium only; D, DMSO; or compounds, as indicated at the following concentrations: 40, 40 μM; 41, 30 μM; 76, 10 μM; 77, 5 μM. […] CWR22R or Hep3B cells were treated with compound and subjected to hypoxia as described above. B-Actin is shown for loading control. Cells were treated with M, medium only; D, DMSO; or compounds, as indicated at the following concentrations: 40, 40 μM; 41, 30 μM; 76, 20 μM; 77, 7.5 μM.
The lack of a functional IRE in HIF-1a represents a clear dichotomy between the two HIF isoforms that allows their translation to be controlled by a different regulatory system.

HIF-2a = HIF-2a protein stability (cycloheximide, 35S-methionine pulse chase); type: cell-based, human; conditions: 786-O cells; for HIF-2a protein stability after cycloheximide: 10 μg/mL cycloheximide
Experimental: Cells were treated with medium only, DMSO, or compound as described for western blots. Following the second day of compound incubation, 10 μg/mL cycloheximide (CHx) was added to halt de novo protein synthesis and time points were taken. Protein quantification and Western blots were performed as described.
as §1
Quantitative RT-PCR was performed on total RNA harvested from 7H4 cells treated with medium only, DMSO or compound. […] To test whether the compounds alter HIF-2a stability, the inventors assessed protein half-life following the addition of cycloheximide in compound versus DMSO-only treated cells (see FIG. 10).

[3] = tested on: Transferrin Receptor 1 (TfR1) mRNA; experiment: qRT-PCR for Transferrin Receptor 1 mRNA; conditions: for Transferrin Receptor 1 mRNA expression: compound treated 786-O cells

Row | SMILES | dependence of effect on the IRE (wild-type or mutant 5′-UTR IRE reporter) [1] | dependence of effect on HIF-2a 5′-UTR [1] | regulation of HIF target genes (HIF and VHL target genes) | NES, gene set PRC3, VHL null (markers of PRC3 cells compared to WT8 cells) (HIF and VHL target genes) | NES, gene set Schofield, HIF (validated HIF-regulated genes) (HIF and VHL target genes) | NES, gene set Staller, VHL WT (markers of VHL WT cells compared to VHL null cells) (HIF and VHL target genes) | NES, gene set Staller, VHL null (markers of VHL null cells compared to VHL WT cells) (HIF and VHL target genes) | NES, gene set WT8, VHL WT (markers of WT8 cells compared to PRC3 cells) (HIF and VHL target genes) | HIF-2a mRNA translation (newly synthesized HIF-2a protein) (HIF-2a mRNA translation) | effect on putative IRE in HIF-1a 5′-UTR [2] | HIF-2a protein stability by 35S-methionine pulse chase (HIF-2a) | HIF-2a protein stability after cycloheximide (HIF-2a) | Transferrin Receptor 1 mRNA expression [3] | TfR1 mRNA stability ([3]; 786-O cells following addition of Actinomycin D) | effect on synthetic 5′-UTR stem loop reporter (CMV-SL over CMV) ([1]; 786-O cells, 10 μM)
1 | C/C(=C\c1ccccc1)C(=O)CCN(C)C.Cl [Compound 40, 5-(dimethylamino)-2-methyl-1-phenyl-1-penten-3-one hydrochloride] | work via the Iron-Responsive Element (IRE) | dependent upon presence of 5′-UTR | coordinately downregulate HIF target genes | NES: −3.50 | NES: −1.65 | NES: −1.75 | NES: −2.48 | NES: −1.86 | decrease HIF-2a mRNA translation | do not affect putative IRE in HIF-1a 5′-UTR | have no affect on HIF-2a protein stability | no compound of 40, 41, 76 and 77 significantly affects HIF-2a stability | increase expression of Transferrin Receptor 1 mRNA | – | –
2 | CC1(C)CC(=O)C=C(Sc2ccc(C#N)cc2[N+](=O)[O-])S1 [Compound 77, 4-[(2,2-dimethyl-4-oxo-3,4-dihydro-2H-thiin-6-yl)thio]-3-nitrobenzonitrile] | work via the Iron-Responsive Element (IRE) | dependent upon presence of 5′-UTR | coordinately downregulate HIF target genes | NES: −3.15 | NES: −1.78 | NES: 1.53 | NES: −2.45 | NES: 1.88 | decrease HIF-2a mRNA translation | do not affect putative IRE in HIF-1a 5′-UTR | have no affect on HIF-2a protein stability | no compound of 40, 41, 76 and 77 significantly affects HIF-2a stability | increase expression of Transferrin Receptor 1 mRNA | – | –
3 | COC(=O)c1sccc1N/N=C(/C#N)S(C)(=O)=O [Compound 76, methyl 3-{2-[cyano(methylsulfonyl)methylene] hydrazino}thiophene-2-carboxylate] | work via the Iron-Responsive Element (IRE) | dependent upon presence of 5′-UTR | coordinately downregulate HIF target genes | NES: −3.15 | NES: −1.78 | NES: 1.53 | NES: −2.45 | NES: 1.88 | decrease HIF-2a mRNA translation | do not affect putative IRE in HIF-1a 5′-UTR | have no affect on HIF-2a protein stability | no compound of 40, 41, 76 and 77 significantly affects HIF-2a stability | increase expression of Transferrin Receptor 1 mRNA | decreases TfR1 mRNA stability | –
4 | CCCCC/C=C/C=C1/C(=O)C=C[C@@H]1C/C=C\CCCC(=O)O [PGJ2, 15-deoxy-Δ^12,14-prostaglandin J2] | completely abolished PGJ2 sensitivity | decreased the luciferase activity derived from the UTR-containing plasmid but not the plasmid driven by the HIF promoter alone | – | – | – | – | – | – | significantly decrease the amount of protein translated from the mRNA without decreasing the half-life of the protein | – | – | no indication that PGJ2 affects HIF2a protein half-life | – | – | no effect on the synthetic 5′-UTR element
5 | COc1ccc(O)c(/C=C/C(=O)c2c(O)cc(C)oc2=O)c1 [Compound 41, 4-hydroxy-3-[3-(2-hydroxy-5-meoxyphenyl)acryloyl]-6-methyl-2H-pyran-2-one] | work via the Iron-Responsive Element (IRE) | dependent upon presence of 5′-UTR | coordinately downregulate HIF target genes | NES*: −2.98 | NES: −1.62 | NES: 1.62 | NES: −2.42 | NES: 1.58 | decrease HIF-2a mRNA translation | do not affect putative IRE in HIF-1a 5′-UTR | have no affect on HIF-2a protein stability | no compound of 40, 41, 76 and 77 significantly affects HIF-2a stability | increase expression of Transferrin Receptor 1 mRNA | – | –

— US10881656B2, “HIF inhibitors and use thereof” (The General Hospital Corporation, priority 2008, dated 2021)
